Tested on: HCT116 colorectal cancer cells
Test: Cisplatin sensitization assay (96 h cell viability MTS);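 also: Test-compound concentration that lowers the Cisplatin IC50 by a set fold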
Format: cell-based
Conditions: compound and Cisplatin added simultaneously, Cisplatin sensitization value
Procedure, shortened: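 Compound and cisplatin added together as a full matrix of 2-fold serial dilutions from a top final concentration of 10 μM; cells incubated 96 h at 37° C, 5% CO2. Viability then read by MTS after 1 h further incubation; sensitization value reported in μM bins.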

Structure (SMILES)	Cisplatin Sensitization Assay
CC1CN(C)CCN1c1ccncc1NC(=O)c1c(N)nn2cc(Cl)cnc12 (stereo not drawn) [I-N-72, 2-amino-6-chloro-N-(4-(2,4-dimethylpiperazin-1-yl)pyridin-3-yl)pyrazolo[1,5-a]pyrimidine-3-carboxamide]	+++ (Cisplatin sensitization value of <0.02 μM)
COC1CCN(c2ccncc2NC(=O)c2c(N)nn3cc(Cl)cnc23)CC1 [I-N-73, 2-amino-6-chloro-N-(4-(4-methoxypiperidin-1-yl)pyridin-3-yl)pyrazolo[1,5-a]pyrimidine-3-carboxamide]	+++ (Cisplatin sensitization value of <0.02 μM)
COC(=O)C1CCN(c2ccncc2NC(=O)c2c(N)nn3cc(Cl)cnc23)CC1 [I-N-74, methyl-1-(3-(2-amino-6-chloropyrazolo[1,5-a]pyrimidine-3-carboxamido)pyridin-4-yl)piperidine-4-carboxylate]	+++ (Cisplatin sensitization value of <0.02 μM)
Nc1nn2cc(Cl)cnc2c1C(=O)Nc1cnccc1N1CCn2cncc2C1 [I-N-75, 2-amino-6-chloro-N-(4-(5,6-dihydroimidazo[1,5-a]pyrazin-7(8H)-yl)pyridin-3-yl)pyrazolo[1,5-a]pyrimidine-3-carboxamide]	+++ (Cisplatin sensitization value of <0.02 μM)
CN1CCN(c2ccncc2NC(=O)c2c(N)nn3cc(C(C)(C)C#N)cnc23)CC1 [I-N-76, 2-amino-6-(2-cyanopropan-2-yl)-N-(4-(4-methylpiperazin-1-yl)pyridin-3-yl)pyrazolo[1,5-a]pyrimidine-3-carboxamide]	+++ (Cisplatin sensitization value of <0.02 μM)
N#CCc1cnc2c(C(=O)Nc3cnccc3N3CCCC3)c(N)nn2c1 [I-N-77, 2-amino-6-(cyanomethyl)-N-(4-(pyrrolidin-1-yl)pyridin-3-yl)pyrazolo[1,5-a]pyrimidine-3-carboxamide]	+ (Cisplatin sensitization value>0.2 μM but <5 μM)
N#CCc1cnc2c(C(=O)Nc3cnccc3N3CCCCCC3)c(N)nn2c1 [I-N-79, 2-amino-N-(4-(azepan-1-yl)pyridin-3-yl)-6-(cyanomethyl)pyrazolo[1,5-a]pyrimidine-3-carboxamide]	++ (Cisplatin sensitization value>0.02 μM but <0.2 μM)
CN1CCN(c2c(F)cncc2NC(=O)c2c(N)nn3cc(CC#N)cnc23)CC1 [I-N-80, 2-amino-6-(cyanomethyl)-N-(5-fluoro-4-(4-methylpiperazin-1-yl)pyridin-3-yl)pyrazolo[1,5-a]pyrimidine-3-carboxamide]	++ (Cisplatin sensitization value>0.02 μM but <0.2 μM)
N#CCc1cnc2c(C(=O)Nc3cnccc3N3CCOCC3)c(N)nn2c1 [I-N-81, 2-amino-6-(cyanomethyl)-N-(4-morpholinopyridin-3-yl)pyrazolo[1,5-a]pyrimidine-3-carboxamide]	+++ (Cisplatin sensitization value of <0.02 μM)
CN1CCN(c2ccncc2NC(=O)c2c(N)nn3cc(CC#N)cnc23)CC1 [I-N-82, 2-amino-6-(cyanomethyl)-N-(4-(4-methylpiperazin-1-yl)pyridin-3-yl)pyrazolo[1,5-a]pyrimidine-3-carboxamide]	++ (Cisplatin sensitization value>0.02 μM but <0.2 μM)
N#CCc1cnc2c(C(=O)Nc3cnccc3N3CCC(O)CC3)c(N)nn2c1 [I-N-83, 2-amino-6-(cyanomethyl)-N-(4-(4-hydroxypiperidin-1-yl)pyridin-3-yl)pyrazolo[1,5-a]pyrimidine-3-carboxamide]	++ (Cisplatin sensitization value>0.02 μM but <0.2 μM)
N#CCc1cnc2c(C(=O)Nc3cnccc3N3CCCCC3)c(N)nn2c1 [I-N-84, 2-amino-6-(cyanomethyl)-N-(4-(piperidin-1-yl)pyridin-3-yl)pyrazolo[1,5-a]pyrimidine-3-carboxamide]	+++ (Cisplatin sensitization value of <0.02 μM)

Reference: US11370798B2 (Vertex Pharmaceuticals Incorporated, priority 2012, dated 2022)
